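Tested at 5 concentrations; 48 h exposure; 96-well plates; endpoints linearly interpolated, else capped at highest concentration. TGI denotes the concentration required for complete inhibition of growth.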
Tests used:
Experiment in all cases: NCI anticancer screen, dose series, 48 h
DMS 114 small cell lung = tested on: DMS 114 small cell lung
A498 renal = tested on: A498 renal
HOP-92 NSCLC = tested on: HOP-92 NSCLC
OVCAR-4 ovarian = tested on: OVCAR-4 ovarian
LOX IMVI melanoma = tested on: LOX IMVI melanoma
SK-OV-3 ovarian = tested on: SK-OV-3 ovarian
HCT-116 colon = tested on: HCT-116 colon
OVCAR-5 ovarian = tested on: OVCAR-5 ovarian
KM12 colon = tested on: KM12 colon
786-0 renal = tested on: 786-0 renal
MOLT-4 leukemia = tested on: MOLT-4 leukemia
SF-539 CNS = tested on: SF-539 CNS
HT29 colon = tested on: HT29 colon
MALME-3M melanoma = tested on: MALME-3M melanoma
HCT-15 colon = tested on: HCT-15 colon
HCC-2998 colon = tested on: HCC-2998 colon
NCI-H522 lung = tested on: NCI-H522 lung
SK-MEL-28 melanoma = tested on: SK-MEL-28 melanoma
OVCAR-8 ovarian = tested on: OVCAR-8 ovarian
UACC-257 melanoma = tested on: UACC-257 melanoma
U251 CNS = tested on: U251 CNS
CAKI-1 renal = tested on: CAKI-1 renal
TK-10 renal = tested on: TK-10 renal
SNB-78 CNS = tested on: SNB-78 CNS
SF-295 CNS = tested on: SF-295 CNS
M19-MEL melanoma = tested on: M19-MEL melanoma
SN12C renal = tested on: SN12C renal
M14 melanoma = tested on: M14 melanoma
EKVX NSCLC = tested on: EKVX NSCLC
A549 NSCLC = tested on: A549 NSCLC
NCI-H23 lung = tested on: NCI-H23 lung
HOP-18 NSCLC = tested on: HOP-18 NSCLC
SF-268 CNS = tested on: SF-268 CNS
SK-MEL-2 melanoma = tested on: SK-MEL-2 melanoma
UACC-62 melanoma = tested on: UACC-62 melanoma
ACHN renal = tested on: ACHN renal
CCRF-CEM leukemia = tested on: CCRF-CEM leukemia
COLO 205 colon = tested on: COLO 205 colon
NCI-H226 lung = tested on: NCI-H226 lung
UO-31 renal = tested on: UO-31 renal
IGROV1 ovarian = tested on: IGROV1 ovarian
LXFL 529 NSCLC = tested on: LXFL 529 NSCLC
DLD-1 colon = tested on: DLD-1 colon
SW-620 colon = tested on: SW-620 colon
NCI-H460 lung = tested on: NCI-H460 lung
SK-MEL-5 melanoma = tested on: SK-MEL-5 melanoma
RPMI-8226 leukemia = tested on: RPMI-8226 leukemia
SR leukemia = tested on: SR leukemia
HL-60(TB) leukemia = tested on: HL-60(TB) leukemia
K-562 leukemia = tested on: K-562 leukemia
SNB-75 CNS = tested on: SNB-75 CNS
RXF 393 renal = tested on: RXF 393 renal
DMS 273 small cell lung = tested on: DMS 273 small cell lung
KM20L2 colon = tested on: KM20L2 colon
HOP-62 NSCLC = tested on: HOP-62 NSCLC
SNB-19 CNS = tested on: SNB-19 CNS
OVCAR-3 ovarian = tested on: OVCAR-3 ovarian

COc1ccc(/C(=N/O)C(c2ccc(OC)cc2)C2C(=O)Oc3ccccc32)cc1 (configuration not stated)
TGI (DMS 114 small cell lung): 79.9 µM | TGI (A498 renal): > 100 µM | TGI (HOP-92 NSCLC): 80.6 µM | TGI (OVCAR-4 ovarian): > 100 µM | TGI (LOX IMVI melanoma): > 100 µM | TGI (SK-OV-3 ovarian): > 100 µM | TGI (HCT-116 colon): > 100 µM | TGI (OVCAR-5 ovarian): > 100 µM | TGI (KM12 colon): > 100 µM | TGI (786-0 renal): > 100 µM | TGI (MOLT-4 leukemia): > 100 µM | TGI (SF-539 CNS): > 100 µM | TGI (HT29 colon): > 100 µM | TGI (MALME-3M melanoma): > 100 µM | TGI (HCT-15 colon): > 100 µM | TGI (HCC-2998 colon): > 100 µM | TGI (NCI-H522 lung): > 100 µM | TGI (SK-MEL-28 melanoma): > 100 µM | TGI (OVCAR-8 ovarian): > 100 µM | TGI (UACC-257 melanoma): > 100 µM | TGI (U251 CNS): > 100 µM | TGI (CAKI-1 renal): > 100 µM | TGI (TK-10 renal): > 100 µM | TGI (SNB-78 CNS): > 100 µM | TGI (SF-295 CNS): 11.7 µM | TGI (M19-MEL melanoma): > 100 µM | TGI (SN12C renal): > 100 µM | TGI (M14 melanoma): > 100 µM | TGI (EKVX NSCLC): > 100 µM | TGI (A549 NSCLC): > 100 µM | TGI (NCI-H23 lung): > 100 µM | TGI (HOP-18 NSCLC): > 100 µM | TGI (SF-268 CNS): > 100 µM | TGI (SK-MEL-2 melanoma): > 100 µM | TGI (UACC-62 melanoma): > 100 µM | TGI (ACHN renal): > 100 µM | TGI (CCRF-CEM leukemia): > 100 µM | TGI (COLO 205 colon): 7.05 µM | TGI (NCI-H226 lung): > 100 µM | TGI (UO-31 renal): > 100 µM | TGI (IGROV1 ovarian): > 100 µM | TGI (LXFL 529 NSCLC): > 100 µM | TGI (DLD-1 colon): > 100 µM | TGI (SW-620 colon): > 100 µM | TGI (NCI-H460 lung): > 100 µM | TGI (SK-MEL-5 melanoma): 68.2 µM | TGI (RPMI-8226 leukemia): > 100 µM | TGI (SR leukemia): > 100 µM | TGI (HL-60(TB) leukemia): > 100 µM | TGI (K-562 leukemia): > 100 µM | TGI (SNB-75 CNS): > 100 µM

CCCCCC(=O)N[C@H]1CCc2cc(O)c(O)c(O)c2-c2ccc(SC)c(=O)cc21
TGI (DMS 114 small cell lung): 24 µM | TGI (A498 renal): 64.1 µM | TGI (HOP-92 NSCLC): 90.9 µM | TGI (OVCAR-4 ovarian): 44.7 µM | TGI (LOX IMVI melanoma): 44.3 µM | TGI (SK-OV-3 ovarian): 66.2 µM | TGI (RXF 393 renal): > 100 µM | TGI (HCT-116 colon): 33 µM | TGI (OVCAR-5 ovarian): > 100 µM | TGI (KM12 colon): > 100 µM | TGI (DMS 273 small cell lung): > 100 µM | TGI (786-0 renal): > 100 µM | TGI (MOLT-4 leukemia): 90.1 µM | TGI (KM20L2 colon): 53.7 µM | TGI (SF-539 CNS): 45.3 µM | TGI (HT29 colon): > 87.1 µM | TGI (MALME-3M melanoma): > 100 µM | TGI (HCT-15 colon): 42.9 µM | TGI (HCC-2998 colon): > 79 µM | TGI (NCI-H522 lung): 54.5 µM | TGI (SK-MEL-28 melanoma): > 100 µM | TGI (OVCAR-8 ovarian): > 59.8 µM | TGI (UACC-257 melanoma): > 75.3 µM | TGI (U251 CNS): > 73.8 µM | TGI (CAKI-1 renal): 91.6 µM | TGI (TK-10 renal): > 100 µM | TGI (SNB-78 CNS): > 100 µM | TGI (HOP-62 NSCLC): > 100 µM | TGI (SF-295 CNS): 54.1 µM | TGI (M19-MEL melanoma): 53.1 µM | TGI (SN12C renal): 42.7 µM | TGI (M14 melanoma): 36.7 µM | TGI (EKVX NSCLC): > 100 µM | TGI (A549 NSCLC): > 100 µM | TGI (NCI-H23 lung): 55 µM | TGI (SF-268 CNS): > 100 µM | TGI (SK-MEL-2 melanoma): 72.4 µM | TGI (UACC-62 melanoma): 83.4 µM | TGI (ACHN renal): > 100 µM | TGI (CCRF-CEM leukemia): > 76.9 µM | TGI (COLO 205 colon): 44.5 µM | TGI (NCI-H226 lung): 72.6 µM | TGI (UO-31 renal): > 100 µM | TGI (IGROV1 ovarian): > 100 µM | TGI (LXFL 529 NSCLC): 48.7 µM | TGI (DLD-1 colon): 40.6 µM | TGI (SW-620 colon): 33.6 µM | TGI (NCI-H460 lung): > 100 µM | TGI (SK-MEL-5 melanoma): 75.5 µM | TGI (RPMI-8226 leukemia): > 100 µM | TGI (SNB-19 CNS): > 100 µM | TGI (OVCAR-3 ovarian): 99.6 µM | TGI (SR leukemia): 68.8 µM | TGI (HL-60(TB) leukemia): 51.2 µM | TGI (K-562 leukemia): > 49.9 µM | TGI (SNB-75 CNS): 78.5 µM

— PubChem BioAssay (NCI)
